Assays:
[1] = system: PC4-dependent transcription (template pG5HM); test: In vitro transcription assay reconstituted with purified general transcription factors; assay type: biochemical
Excerpt: FIGS. 3A, 3B and 3C show the functional analyses of PC4 mutations in different assays.
In vitro transcription assay was reconstituted with purified general transcription factors, including TFIIA, TFIIB, TFIID, TFIIF, TFIIH and RNA polymerase II, either purified from HeLa cells or from a recombinant source. This system can be activated in a PC4 and activator-dependent manner. In addition to the transcription factors, the system also contained one activator-responsive template, a basic template (activator-independent), and ^32P-CTP. After incubation at 30° C. for 1 hr, the newly synthesized RNAs were extracted and analyzed on a denatured polyacrylamide gel and visualized by autoradiography.

[2] = target: PC4 (Homo sapiens, UniProt P53999); test: Interaction of AH peptide with PC4; assay type: binding; details: 15 amino acid peptide
[3] = system: 64 bp dsDNA probe from the adeno major late promoter region; test: Electrophoresis mobility shift assay (EMSA), DNA binding activity of PC4 proteins; details: purified recombinant PC4 mutant vs wild type, FIG. 3B
Experimental: EMSA was used to determine the ds-DNA binding activity of PC4 protein and was performed in a 20 ul of reaction containing […] of purified PC4 protein and ^32P-labeled 64 bp dsDNA probe from the adeno major late promoter region. After incubated at 4° C. for 1 hr, the reaction mixture was analyzed on an 8% polyacrylamide gel. The mobilized PC4-dsDNA complex was visualized using autoradiography.

[4] = system: ssDNA; test: Protein array assay (UPA), protein-DNA interaction; assay type: binding; details: FIG. 4F
Experimental: (§1) The protein array assay is based on the “Universal Protein Array” method, also called UPA [Ge, H. (2000) UPA, a universal protein array system for quantitative detection of protein-protein, protein-DNA, protein-RNA and protein-ligand interactions. Nucleic Acids Res. 28, e3]. Purified proteins were validated, normalized and arrayed on a nitrocellulose sheet. Each spot was arrayed in 1 mm diameter containing 10-100 ng of protein depending on size. Targeted proteins that interacted with the PC4 proteins on the array were detected by specific antibodies such as antibodies against transcription factor TFIIA, Gal4, or Sp1. For protein-DNA interaction, probe DNA was labeled with ^32P-dCTP and the bound DNA was monitored by autoradiography.

[5] = target: T1, transcription factor TFIIA (Homo sapiens, UniProt P52655+P52657); test: Protein array assay (UPA), interaction with TFIIA; assay type: binding; details: FIG. 4C
T1 sequence (P52655 1-376): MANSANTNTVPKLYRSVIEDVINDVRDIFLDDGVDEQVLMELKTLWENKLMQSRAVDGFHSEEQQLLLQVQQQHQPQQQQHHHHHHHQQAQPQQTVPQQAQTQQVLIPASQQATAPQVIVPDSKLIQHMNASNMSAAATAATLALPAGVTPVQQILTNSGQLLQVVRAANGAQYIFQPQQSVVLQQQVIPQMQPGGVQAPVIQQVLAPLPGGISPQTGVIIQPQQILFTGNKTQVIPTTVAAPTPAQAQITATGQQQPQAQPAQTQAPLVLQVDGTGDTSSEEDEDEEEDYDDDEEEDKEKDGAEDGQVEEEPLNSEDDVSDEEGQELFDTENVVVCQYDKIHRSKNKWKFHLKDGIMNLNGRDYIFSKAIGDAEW
T1 sequence (P52657 1-109): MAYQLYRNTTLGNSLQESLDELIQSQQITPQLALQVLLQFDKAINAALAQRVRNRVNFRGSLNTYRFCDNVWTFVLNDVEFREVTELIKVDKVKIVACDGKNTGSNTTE
Experimental: as §1

[6] = system: transcription factor Sp1 (Gal4-Sp1 fusion protein); test: Protein array assay (UPA), interaction with Sp1; assay type: binding; details: FIG. 4E
Experimental: as §1

Row | Substance | transcription activation, PC4-dependent ([1]; AH fused with a Gal4 DNA binding domain) | interaction with PC4 (mimics an activation domain) [2] | PC4's DNA binding activity [3] | PC4 transcription activity ([1]; purified recombinant PC4 mutant vs wild type, FIG. 3C) | ssDNA binding activity of PC4 [4] | interaction of PC4 with TFIIA [5] | interaction of PC4 with Sp1 [6]
1 | ELQEL′QELQALLQQQ (ELQELQELQALLQQQ; AH15) | dramatic transcription activation | interacting strongly |  |  |  |  | 
2 | F77P: recombinant human PC4 protein with single amino acid change F77P |  |  | abolishes | abolishes | critical for the ssDNA binding activity | enhances | enhances
